# Legend:
# [1] = test system: OVA-specific CD8+ TCR transgenic T-cells; experiment: Pancreatic auto-antigen cross-presentation: proliferation of adoptively transferred OVA-specific CD8+ T cells in RIP-OVA mice under PNES; assay type: in vivo, RIP-OVA transgenic mice; settings: PNES 450 μA, 10 Hz, 2 mn, 3 times/day; FIG. 3C
# [2] = test system: catecholaminergic fibers projecting to pancreatic LN; set-up: species or system tdTomatoTH-Cre mice
SMILES,Effect of PNES on auto-antigen cross-presentation (T cell proliferation relative to sham) in mice treated with propranolol [1],Field Action Potentials (FAP) peak amplitude after addition of TTX to the medium [2]
CC(C)NCC(O)COc1cccc2ccccc12 (centres unmarked) [propranolol],β-AR-dependent,
NC1=N[C@H](O)[C@H]2[C@H]3O[C@]4(O)O[C@@H]([C@@H](O)[C@@]2(N1)[C@@H]4O)[C@]3(O)CO [tetrodotoxin],,inhibited
